{
  "source": "paper PMC8048572",
  "about": "“Release of Soybean Isoflavones by Using a β‐Glucosidase from Alicyclobacillus herbarius” (Chembiochem, 2020)",
  "molecules": {"B1": {"name": "AheGH1 (Paenalicyclobacillus herbarius) (protein)", "chain": "MTREFISFPQDFLFGTATASYQIEGAVHEDGRGESIWDRFSHTPGKVYQGHTGDVACDHYHRYREDVALMKELGIPAYRFSIAWPRIFPEKGMKNEAGLDFYRRLLEALHEADIRSFVTLYHWDLPQWLQDRGGWANRDTAEYFAEYASLIYERLGDGIDAFITHNEPWCAAFLGHGFGVHAPGHTDWREAFQAAHHILYSHGLAVQAHRASSHKGQIGITLNFTWVDAATDSATDQAAAEVSHAFNNRWFLEPVAGRGYPQEFQQLVEQRIGQFDFVRQGDLAVIAEPIDFLGINFYTRSVVAANPDDALFGLRTLEAPADNRTEMGWEIHPDSLYRLLTWVQSVTGQLPLYITENGAAFADEPVNGRVEDVRRIHYIADHLEAAKRFVDAGGPLKGYFLWSFMDNFEWALGYSKRFGMVYVDYESQQRLVKDSGRWFSEQIAAHKGQVRA"}},
  "key": {"AheGH1 [1]": {"target": "T1, AheGH1 (Paenalicyclobacillus herbarius, UniProt A0A8I3B065)", "T1 construct": "codon-optimised synthetic gene, C-terminal poly-His tag (pCH93b), E. coli BL21(DE3)", "T1 sequence (A0A8I3B065 1-452)": "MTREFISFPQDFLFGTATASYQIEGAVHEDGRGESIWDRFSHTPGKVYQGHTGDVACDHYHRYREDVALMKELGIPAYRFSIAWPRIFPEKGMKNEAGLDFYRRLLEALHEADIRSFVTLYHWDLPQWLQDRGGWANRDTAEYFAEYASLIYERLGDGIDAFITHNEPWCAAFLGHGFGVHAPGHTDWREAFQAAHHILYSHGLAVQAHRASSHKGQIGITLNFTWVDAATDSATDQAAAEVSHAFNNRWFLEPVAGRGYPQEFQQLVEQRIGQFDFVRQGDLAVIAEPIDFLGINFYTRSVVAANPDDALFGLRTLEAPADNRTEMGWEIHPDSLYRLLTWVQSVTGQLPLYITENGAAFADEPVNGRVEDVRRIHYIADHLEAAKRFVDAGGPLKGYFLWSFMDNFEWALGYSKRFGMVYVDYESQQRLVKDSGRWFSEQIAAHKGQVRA", "assay": "spectrophotometric p-nitrophenol release at […] nm, substrate inhibition fit", "assay_type": "biochemical", "conditions": "50 mM HEPES, pH 7.4, 25 °C; substrate inhibition constant"}, "AheGH1 [2]": {"target": "T1, AheGH1", "assay": "spectrophotometric pNPG hydrolysis at […] nm", "assay_type": "biochemical", "conditions": "10 mM pNPG, 50 mM HEPES, pH 7.4, 25 °C; product inhibitor"}, "purified protein": {"substrate": "O=[N+]([O-])c1ccc(O[C@@H]2O[C@H](CO)[C@@H](O)[C@H](O)[C@H]2O)cc1", "assay": "purified protein", "conditions": "50 mM HEPES, pH 7.4, 25 °C"}},
  "data": [
    {"molecule": "O=[N+]([O-])c1ccc(O[C@@H]2O[C@H](CO)[C@@H](O)[C@H](O)[C@H]2O)cc1", "note": "[pNPG, p‐nitrophenyl‐β‐D‐glucopyranoside]", "values": [
      {"measurement": "K i", "setting": "AheGH1 [1]", "result": "37 ± 6", "unit": "mM"}
    ]},
    {"molecule": "OC[C@H]1OC(O)[C@H](O)[C@@H](O)[C@@H]1O", "note": "(stereo partly shown) [glucose]", "values": [
      {"measurement": "% activity retained at 10 % (w/v) glucose", "setting": "AheGH1 [2]", "result": 65, "unit": "%"}
    ]},
    {"molecule": "B1", "values": [
      {"measurement": "Km", "setting": "purified protein", "result": "1400 ± 100", "unit": "µM"},
      {"measurement": "kcat", "setting": "purified protein", "result": "2.7 ± 0.1", "unit": "s⁻¹"}
    ]}
  ]
}
